Experimental findings from a melting point compilation (Tetko et al.; mined from patent text by program, amines drawn as free bases though some values may be those of a salt) are described below.

Broadly, the melting point is the temperature of the solid-liquid transition.

Molecules are shown by their SMILES.

The compound `Cc1ccc(CC(N)C(O)C(N)Cc2ccccc2)cc1` (stereo not drawn) displayed a melting point of 126 to 128 °C.

The compound `O=C(CCCC(Cl)=C(C(=O)O)c1csc(NC(=O)OCc2ccccc2)n1)OCc1ccccc1` came in with a melting point of 146 to 147 °C.

`CNC(=NS(C)(=O)=O)NCCCCc1nc(NC(N)=NCC(F)(F)F)sc1C` gave a melting point of 165 to 166 °C.

With `CCCCCCCCCCCCn1c2cc(Cl)ccc2c2ccc(Cl)cc21`, the melting point was in the range of 70 to 71 °C.

In the case of `CC(C)[C@H](NC(=O)N1CCOCC1)C(=O)N[C@@H](Cc1ccccc1)C[C@H](O)[C@H](Cc1ccccc1)NC(=O)[C@@H](NC(=O)N1CCOCC1)C(C)C`, the melting point is 198 to 201 °C.

As for `O=C(CCC1CCCCC1)NC1N=C(c2ccccc2)c2ccccc2NC1=S` (stereo not drawn), the melting point lay within 113 to 119 °C.

With `COc1cc(N)c(Cl)cc1C(=O)NCC1CCN(CCCCCC(=O)c2ccccc2)CC1`, the melting point was in the range of 138 to 141 °C.

`CC(=O)C=CC=Cc1ccc(OCc2ccccc2)cc1` displayed a melting point of 132 to 133 °C.

Compound `CC(C)Oc1cc(-c2cn(C)c(C(F)(F)F)cc2=O)c(F)cc1Cl` gave a melting point of 150 to 151 °C.

`COc1cc(OC)nc(C2OC(=O)c3c(-c4ccccc4)ccnc32)n1` (stereo not drawn): the melting point was 151 to 154 °C.

`CCOC(=O)N1Cc2ccccc2C(Oc2ccc([N+](=O)[O-])cc2)C1` (stereo not drawn): the melting point was in the range of 118 to 119 °C.

Turning to `C[C@@H](NC(=O)c1c[nH]c2ncc(-c3nn(CCO)c4cc(Cl)ccc34)nc12)C(=O)N1CC(C#N)C1`, the melting point fell in the range of 225 to 250 °C.

`ON=Cc1ccc(Cl)c(I)c1` registered a melting point of 97 to 99 °C.

In turn, `CCOC(=O)c1ccc(NC(=O)CC(C(=O)Nc2ccc(NC(=O)Nc3ccccc3C)cc2)c2ccccc2)cc1` (stereo not drawn) returned a melting point above 220 °C.

With `OC(CNc1ccc2ncnn2n1)CN1CCC(OC(c2ccccc2)c2ccccc2)CC1` (stereo not drawn), the melting point is 82 to 87 °C.

In turn, `COc1ccc([N+](=O)[O-])c2c1CC(C)(C)O2` showed a melting point of 135 to 136 °C.

`COc1cc(C=O)ccc1C1OC(CO)C(O)C(O)C1O` (stereo not drawn) returned a melting point of 188 to 190 °C.

With `CC(=O)Nc1ccc2c(c1)C(=O)CC1(CCN(Cc3ccc([N+](=O)[O-])cc3)CC1)O2`, the melting point is above 250 °C.

In turn, `CCN(CC)CCOc1ccc2c(c1)cc(OC)c1cc(OCCN(CC)CC)ccc12` had a melting point of 63 to 65 °C.

Turning to `CC(=O)SCC(=O)NCCSC=CSCCNC(=O)CSC(C)=O`, the melting point was determined as 129 °C.

As for `O=c1cc(-c2ccoc2)c2ccc(CBr)cc2o1`, the melting point lay within 155 to 156 °C.

On to `O=C(O)C(=O)CC(=O)c1ccc(C2CCCCC2)cc1`, for which the melting point lay in the range of 140 to 142 °C.

On to `CCOC(=O)CCCC(=O)CNC(=O)c1csc(NC(=O)NCc2ccccn2)n1`, for which the melting point was 110 °C.

Take `COc1ccc2c(c1)CCC1CCNC(=O)C(CCNC(C)C)=C21` (stereo not drawn): the melting point lay within 147 to 149 °C.

`CCSc1nc(=O)n(C(=O)NC)s1` had a melting point of 131 °C.

`Cn1ncc2c(=O)n3c(nc21)SCCCC3`: the melting point is 157 °C.

In turn, `Cc1ccc2c(c1)C(O)(c1ccccn1)CC(C)(C)CO2` (stereo not drawn) returned a melting point of 126 °C.

Consider `CC(C)N(CCS(=O)(=O)c1ccc(Cl)cc1)C(=O)Oc1ccccc1`, for which the melting point is 77.5 to 79 °C.

`O=C(O)CC(CNC(=O)C1Cc2ccccc2N1S(=O)(=O)c1ccc(-c2cccc(C(F)(F)F)c2)cc1)c1ccccc1` (stereo not drawn) came in with a melting point of 90 °C.

In the case of `CSc1cc(C)nc(SC)c1NC(=O)CCCCSc1nc2cccc(C(F)(F)F)c2o1`, the melting point was 179 to 180 °C.

As for `c1ccc2cc(N3CCC4(CCNCC4)CC3)ccc2c1`, the melting point was 158 to 162 °C.

Compound `O=C(Cc1ccc2c(c1)OCO2)N[C@H]1CC[C@H](CCN2CCN(c3nccc4c3CCO4)CC2)CC1` returned a melting point of 212 °C.

Turning to `CCc1cnc2c(c1)ON(C(C)(C(N)=O)C(C)C)O2` (stereo not drawn), the melting point was 114 to 117 °C.

In turn, `Cc1cnc2n1-c1ccc(Cl)cc1C(c1ccccc1Cl)=NC2` came in with a melting point of 148 to 149 °C.

For `c1ccc(-c2ccnc3ncnn23)cc1`, the melting point was 140 °C.

Consider `CCN(CC)C(=O)c1ccc[nH]1`, for which the melting point lay in the range of 78.6 to 79.9 °C.

`COc1cc2nc(S(=O)(=O)Nc3c(OC)ccnc3Cl)nn2c(OC)n1` registered a melting point of 197 to 199 °C.

In turn, `O=C(O)Cc1ccc2c(c1)C(=O)c1ccc(Cl)cc1CS2` had a melting point of 245 to 247 °C.

Compound `CC(C)C(NC(=O)c1ccccn1)C(=O)NC(Cc1ccccc1)C(O)C(O)C(Cc1ccccc1)NC(=O)C(NC(=O)c1ccccn1)C(C)C` (stereo not drawn) had a melting point of 167 to 171 °C.

Compound `O=C(NCc1ccccc1)c1ccc2cnccc2n1` showed a melting point of 113 to 115 °C.

Compound `O=C(O)c1ccccc1OC1CCOC1=O` (stereo not drawn) showed a melting point of 113 to 115 °C.

Consider `CC#CCOc1ccc(SC(C(=O)NO)c2ccc(F)cc2)cc1` (stereo not drawn), for which the melting point came out at 91.1 °C.

Compound `Nc1c(Cl)cccc1NC(=S)Nc1cscc1Cl` had a melting point of 276 to 280 °C.

`CCCCCCCNC(=O)Nc1ccccc1C(=O)Nc1ccc(N(C)C)cc1` gave a melting point of 178 to 180 °C.

`CC(C)c1c(Sc2ccc(O)cc2)n(C)c2ccccc12` returned a melting point of 89 to 90 °C.

`CCN1CCCC1CNC(=O)c1c(OC)c(Cl)cc(Cl)c1OC` (stereo not drawn) came in with a melting point of 120 to 121 °C.

`Nc1cccc(S(=O)(=O)C(F)(F)C(F)Cl)c1` (stereo not drawn) gave a melting point of 66 to 67.5 °C.

Consider `CC(C)(C(=O)O)S(=O)c1ccc2c(-c3ccc(Cl)cc3)noc2c1` (stereo not drawn), for which the melting point was 184 to 185 °C.

In turn, `CCOC(=O)N1CCC(=C2c3cc(F)ccc3CCc3cccnc32)CC1` returned a melting point of 112 to 114 °C.

Compound `CCOC(=O)CNS(=O)(=O)C(F)(F)F` showed a melting point of 73 to 75 °C.

`CN(C)c1ccc(N=Nc2ccccc2C(=O)NCCNC(=O)OC(C)(C)C)cc1` returned a melting point of 131 to 134 °C.

In the case of `N#CCN1CCC(c2noc3cc(F)ccc23)CC1`, the melting point fell in the range of 130 to 132 °C.

Compound `CNC(=O)c1ccc(N2CCN(Cc3cc4c(c(OC(F)F)c3)OC(C)C(=O)N4)CC2)cc1` (stereo not drawn) gave a melting point of 210 to 213 °C.

The compound `COc1cc(OC)c(Br)cc1O` gave a melting point of 78 to 80 °C.

Compound `CCC1Cc2cc(OCC(=O)OC)c(Cl)c(Cl)c2C1=O` (stereo not drawn) came in with a melting point of 134 to 137 °C.

For the compound `COc1nnc(C)c(-c2ccc(Cl)nc2)c1-c1c(F)cc(F)cc1F`, the melting point was in the range of 123 to 124 °C.

As to `COC1=C(OC)C(=O)C(CCCCC[C@H]2CC[C@H](OC(C)=O)CC2)=C(C)C1=O`, the melting point was 33 to 34 °C.

The compound `O=C1Cc2cc(F)ccc2Oc2ccccc21` came in with a melting point of 63 to 64 °C.

`CCCCn1c(=O)c2cn(S(=O)(=O)c3ccc(C(F)(F)F)cc3)nc2n(CCCC)c1=O` gave a melting point of 151 to 153 °C.

Consider `COC(=O)CCc1cn(Cc2ccc(C(=O)OC(C)(C)C)cc2OC)c2cc(C(=O)NCC3CCCC3)ccc12`, for which the melting point fell in the range of 58 to 60 °C.

For `N#CCc1cccc(CCc2ccccc2C(=O)O)c1`, the melting point was in the range of 113 to 120 °C.

Regarding `COC(=O)c1nc(CCl)n(-c2ccc(Cl)cc2C(=O)c2ccccc2)n1`, the melting point lay within 132 to 134 °C.

In turn, `CC(C)CCC(=O)C(C(=O)O)C1c2ccccc2C(=O)N1c1ccc2ccc(Cl)nc2n1` (stereo not drawn) gave a melting point of 176 °C.
